According to ChEMBL document CHEMBL1154822, “Synthesis and antiproliferative activity of 7-azaindirubin-3'-oxime, a 7-aza isostere of the natural indirubin pharmacophore” (J Nat Prod, 2009):

Legend:
SN12C = assay: Cytotoxicity against human SN12C cells assessed as cell growth at 10 uM after 48 hrs by MTT assay; type: functional; conditions: read-out: Activity
TK-10 = assay: Cytotoxicity against human TK10 cells assessed as cell growth at 10 uM after 48 hrs by MTT assay; type: functional; conditions: TK-10, 48 h, read-out: Activity
UO-31 = assay: Cytotoxicity against human UO31 cells assessed as cell growth at 10 uM after 48 hrs by MTT assay; type: functional; conditions: UO-31, 48 h, read-out: Activity
LOX IMVI = assay: Cytotoxicity against human LOXIMVI cells assessed as cell growth at 10 uM after 48 hrs by MTT assay; type: functional; conditions: read-out: Activity
EKVX = assay: Cytotoxicity against human EKVX cells assessed as cell growth at 10 uM after 48 hrs by MTT assay; type: functional; conditions: read-out: Activity
HOP-62 = assay: Cytotoxicity against human HOP62 cells assessed as cell growth at 10 uM after 48 hrs by MTT assay; type: functional; conditions: HOP-62, 48 h, read-out: Activity
HOP-92 = assay: Cytotoxicity against human HOP92 cells assessed as cell growth at 10 uM after 48 hrs by MTT assay; type: functional; conditions: HOP-92, 48 h, read-out: Activity
NCI-H226 = assay: Cytotoxicity against human NCI-H226 cells assessed as cell growth at 10 uM after 48 hrs by MTT assay; type: functional; conditions: NCI-H226, 48 h, read-out: Activity
NCI-H322M = assay: Cytotoxicity against human NCI-H322M cells assessed as cell growth at 10 uM after 48 hrs by MTT assay; type: functional; conditions: read-out: Activity
NCI-H522 = assay: Cytotoxicity against human NCI-H522 cells assessed as cell growth at 10 uM after 48 hrs by MTT assay; type: functional; conditions: NCI-H522, 48 h, read-out: Activity
HCT-116 = assay: Cytotoxicity against human HCT116 cells assessed as cell growth at 10 uM after 48 hrs by MTT assay; type: functional; conditions: HCT-116, 48 h, read-out: Activity
HCT-15 = assay: Cytotoxicity against human HCT15 cells assessed as cell growth at 10 uM after 48 hrs by MTT assay; type: functional; conditions: HCT-15, 48 h, read-out: Activity
HT-29 = assay: Cytotoxicity against human HT-29 cells assessed as cell growth at 10 uM after 48 hrs by MTT assay; type: functional; conditions: HT-29, 48 h, read-out: Activity
SW-620 = assay: Cytotoxicity against human SW620 cells assessed as cell growth at 10 uM after 48 hrs by MTT assay; type: functional; conditions: SW-620, 48 h, read-out: Activity
BT-549 = assay: Cytotoxicity against human BT549 cells assessed as cell growth at 10 uM after 48 hrs by MTT assay; type: functional; conditions: BT-549, 48 h, read-out: Activity
[1] = Cytotoxicity against human Hs 578T cells assessed as cell growth at 10 uM after 48 hrs by MTT assay; type: functional; conditions: read-out: Activity
MDA-MB-435 = assay: Cytotoxicity against human MDA-MB-435 cells assessed as cell growth at 10 uM after 48 hrs by MTT assay; type: functional; conditions: MDA-MB-435, 48 h, read-out: Activity
OVCAR-3 = assay: Cytotoxicity against human OVCAR-3 cells assessed as cell growth at 10 uM after 48 hrs by MTT assay; type: functional; conditions: OVCAR-3, 48 h, read-out: Activity
OVCAR-4 = assay: Cytotoxicity against human OVCAR4 cells assessed as cell growth at 10 uM after 48 hrs by MTT assay; type: functional; conditions: OVCAR-4, 48 h, read-out: Activity
OVCAR-5 = assay: Cytotoxicity against human OVCAR5 cells assessed as cell growth at 10 uM after 48 hrs by MTT assay; type: functional; conditions: OVCAR-5, 48 h, read-out: Activity
OVCAR-8 = assay: Cytotoxicity against human OVCAR8 cells assessed as cell growth at 10 uM after 48 hrs by MTT assay; type: functional; conditions: OVCAR-8, 48 h, read-out: Activity
SK-OV-3 = assay: Cytotoxicity against human SKOV3 cells assessed as cell growth at 10 uM after 48 hrs by MTT assay; type: functional; conditions: SK-OV-3, 48 h, read-out: Activity
HL-60(TB) = assay: Cytotoxicity against human HL-60(TB) cells assessed as cell growth at 10 uM after 48 hrs by MTT assay; type: functional; conditions: HL-60, 48 h, read-out: Activity
RPMI-8226 = assay: Cytotoxicity against human RPMI8226 cells assessed as cell growth at 10 uM after 48 hrs by MTT assay; type: functional; conditions: RPMI-8226, 48 h, read-out: Activity
SR = assay: Cytotoxicity against human SR cells assessed as cell growth at 10 uM after 48 hrs by MTT assay; type: functional; conditions: read-out: Activity
Malme-3M = assay: Cytotoxicity against human MALME-3M cells assessed as cell growth at 10 uM after 48 hrs by MTT assay; type: functional; conditions: read-out: Activity
SK-MEL-2 = assay: Cytotoxicity against human SK-MEL-2 cells assessed as cell growth at 10 uM after 48 hrs by MTT assay; type: functional; conditions: SK-MEL-2, 48 h, read-out: Activity
SK-MEL-28 = assay: Cytotoxicity against human SK-MEL-28 cells assessed as cell growth at 10 uM after 48 hrs by MTT assay; type: functional; conditions: SK-MEL-28, 48 h, read-out: Activity
SK-MEL-5 = assay: Cytotoxicity against human SK-MEL-5 cells assessed as cell growth at 10 uM after 48 hrs by MTT assay; type: functional; conditions: SK-MEL-5, 48 h, read-out: Activity
UACC-62 = assay: Cytotoxicity against human UACC62 cells assessed as cell growth at 10 uM after 48 hrs by MTT assay; type: functional; conditions: UACC-62, 48 h, read-out: Activity
DU-145 = assay: Cytotoxicity against human DU145 cells assessed as cell growth at 10 uM after 48 hrs by MTT assay; type: functional; conditions: DU-145, 48 h, read-out: Activity
SF-295 = assay: Cytotoxicity against human SF295 cells assessed as cell growth at 10 uM after 48 hrs by MTT assay; type: functional; conditions: SF-295, 48 h, read-out: Activity
SNB-75 = assay: Cytotoxicity against human SNB75 cells assessed as cell growth at 10 uM after 48 hrs by MTT assay; type: functional; conditions: SNB-75, 48 h, read-out: Activity
U-251 = assay: Cytotoxicity against human U251 cells assessed as cell growth at 10 uM after 48 hrs by MTT assay; type: functional; conditions: U-251, 48 h, read-out: Activity
[2] = molecular target: Glycogen synthase kinase-3 beta (Homo sapiens) (UniProt P49841); assay: Inhibition of human GSK3-beta assessed as residual enzyme activity at 0.3 uM after 40 mins by scintillation counting
Glycogen synthase kinase-3 beta (Homo sapiens), sequence (P49841 whole entry, looked up): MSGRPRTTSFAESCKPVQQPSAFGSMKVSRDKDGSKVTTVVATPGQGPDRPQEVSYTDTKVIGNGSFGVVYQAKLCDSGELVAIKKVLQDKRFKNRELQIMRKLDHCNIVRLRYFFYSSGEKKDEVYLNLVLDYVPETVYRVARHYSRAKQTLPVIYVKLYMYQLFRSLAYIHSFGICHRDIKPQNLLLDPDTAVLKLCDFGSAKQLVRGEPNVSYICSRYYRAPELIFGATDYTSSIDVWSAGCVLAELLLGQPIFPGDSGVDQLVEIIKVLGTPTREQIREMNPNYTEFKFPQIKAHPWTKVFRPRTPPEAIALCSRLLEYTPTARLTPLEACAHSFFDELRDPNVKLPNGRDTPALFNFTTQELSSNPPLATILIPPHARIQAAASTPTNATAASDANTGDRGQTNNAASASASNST

[3] = molecular target: Cyclin-dependent kinase 1/cyclin B1 (Homo sapiens) (UniProt P06493+P14635); assay: Inhibition of human CDK1/Cyclin B assessed as residual enzyme activity at 0.3 uM after 40 mins by scintillation counting; type: protein-complex assay
Cyclin-dependent kinase 1/cyclin B1 (Homo sapiens), sequence (P06493 whole entry, looked up): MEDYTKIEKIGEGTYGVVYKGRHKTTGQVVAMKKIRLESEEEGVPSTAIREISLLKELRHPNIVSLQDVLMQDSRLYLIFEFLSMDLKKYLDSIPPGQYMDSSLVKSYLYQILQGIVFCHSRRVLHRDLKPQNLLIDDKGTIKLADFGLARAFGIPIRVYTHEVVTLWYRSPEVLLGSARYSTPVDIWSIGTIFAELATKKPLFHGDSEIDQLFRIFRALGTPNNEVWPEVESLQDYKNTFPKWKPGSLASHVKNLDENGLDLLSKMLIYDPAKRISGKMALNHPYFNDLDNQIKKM
Cyclin-dependent kinase 1/cyclin B1 (Homo sapiens), sequence (P14635 whole entry, looked up): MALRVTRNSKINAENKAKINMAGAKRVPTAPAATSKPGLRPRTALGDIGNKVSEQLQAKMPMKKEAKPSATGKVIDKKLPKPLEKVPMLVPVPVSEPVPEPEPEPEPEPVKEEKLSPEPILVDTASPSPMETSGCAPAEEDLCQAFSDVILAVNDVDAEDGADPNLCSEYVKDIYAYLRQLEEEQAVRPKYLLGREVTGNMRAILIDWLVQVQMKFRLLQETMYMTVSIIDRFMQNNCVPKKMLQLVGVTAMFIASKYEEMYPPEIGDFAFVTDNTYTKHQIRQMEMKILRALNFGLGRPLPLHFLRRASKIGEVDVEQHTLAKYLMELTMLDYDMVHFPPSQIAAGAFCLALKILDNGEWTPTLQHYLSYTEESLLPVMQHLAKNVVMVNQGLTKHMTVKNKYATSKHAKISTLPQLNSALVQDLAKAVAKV

[4] = molecular target: Cyclin-dependent kinase 2/cyclin A (Homo sapiens) (UniProt P24941+P20248+P78396); assay: Inhibition of human CDK2/Cyclin A assessed as residual enzyme activity at 3 uM after 40 mins by scintillation counting; type: protein-complex assay

Row | Structure (SMILES) | growth at 10 µM (SN12C) | growth at 10 µM (TK-10) | growth at 10 µM (UO-31) | growth at 10 µM (LOX IMVI) | growth at 10 µM (EKVX) | growth at 10 µM (HOP-62) | growth at 10 µM (HOP-92) | growth at 10 µM (NCI-H226) | growth at 10 µM (NCI-H322M) | growth at 10 µM (NCI-H522) | growth at 10 µM (HCT-116) | growth at 10 µM (HCT-15) | growth at 10 µM (HT-29) | growth at 10 µM (SW-620) | growth at 10 µM (BT-549) | growth at 10 µM [1] | growth at 10 µM (MDA-MB-435) | growth at 10 µM (OVCAR-3) | growth at 10 µM (OVCAR-4) | growth at 10 µM (OVCAR-5) | other results
1 | O=C1Nc2ncccc2/C1=C1/Nc2ccccc2C1=O | 90.6% | 56.4% | 46.2% | 76.3% | 30.6% | 68.8% | 96.9% | 89% | 79.7% | 76.3% | 48.5% | 77.9% | 93.8% | 102% | 70.6% | 72.5% | 92.8% | 75.8% | 80.4% | 77.7% | growth at 10 µM (OVCAR-8): 84.4%; growth at 10 µM (SK-OV-3): 89.5%; growth at 10 µM (HL-60(TB)): 173%; growth at 10 µM (RPMI-8226): 75.4%; growth at 10 µM (SR): 82.5%; growth at 10 µM (Malme-3M): 139%; growth at 10 µM (SK-MEL-2): 43.4%; growth at 10 µM (SK-MEL-28): 123%; growth at 10 µM (SK-MEL-5): 75.4%; growth at 10 µM (UACC-62): 79.6%; growth at 10 µM (DU-145): 81.2%; growth at 10 µM (SF-295): 102%; growth at 10 µM (SNB-75): 68.1%; growth at 10 µM (U-251): 88.2%; Activity [2]: 93%; Activity [3]: 88%; Activity [4]: 64%
2 | CN1C(=O)/C(=C2/C(=O)N(C)c3ncccc32)c2cccnc21 | 105% | 94.4% | 88.3% | 101% | 98.4% | 91.1% | 108% | 102% | 96.5% | 98% | 90.4% | 96% | 99.5% | 109% | 81.8% | 115% | 101% | 132% | 99.8% | 86.7% | growth at 10 µM (OVCAR-8): 88.8%; growth at 10 µM (SK-OV-3): 111%; growth at 10 µM (HL-60(TB)): 183%; growth at 10 µM (RPMI-8226): 105%; growth at 10 µM (SR): 124%; growth at 10 µM (Malme-3M): 91.5%; growth at 10 µM (SK-MEL-2): 83.5%; growth at 10 µM (SK-MEL-28): 106%; growth at 10 µM (SK-MEL-5): 102%; growth at 10 µM (UACC-62): 103%; growth at 10 µM (DU-145): 119%; growth at 10 µM (SF-295): 98.9%; growth at 10 µM (SNB-75): 75.5%; growth at 10 µM (U-251): 95.8%; Activity [2]: 105%; Activity [3]: 88%; Activity [4]: 109%
3 | O=C1Nc2ncccc2/C1=C1/Nc2ccccc2/C1=N\O | 72.8% | 40.3% | 10.6% | 44.5% | 35.5% | 45.9% | 54% | 78.6% | 30.7% | 47.6% | 36.9% | 33.9% | 102% | 82.8% | 45.2% | -9.72% | 72.6% | 69.3% | 86.7% | 87.7% | growth at 10 µM (OVCAR-8): 79.6%; growth at 10 µM (SK-OV-3): 6.5%; growth at 10 µM (HL-60(TB)): 125%; growth at 10 µM (RPMI-8226): 69.5%; growth at 10 µM (SR): 32.8%; growth at 10 µM (Malme-3M): 91%; growth at 10 µM (SK-MEL-2): 14.7%; growth at 10 µM (SK-MEL-28): 75.3%; growth at 10 µM (SK-MEL-5): 72.3%; growth at 10 µM (UACC-62): 56.7%; growth at 10 µM (DU-145): 82.2%; growth at 10 µM (SF-295): 94.9%; growth at 10 µM (SNB-75): 31.2%; growth at 10 µM (U-251): 87.3%; Activity [2]: 64%; Activity [3]: 105%; Activity [4]: 76%
